Source: patent publication US20200131144A1, “AMINE OR (THIO)AMIDE CONTAINING LXR MODULATORS” (Phenex-FXR GmbH, priority 2017, published 2020)
Like-named read-outs stand apart in the source and are kept apart here. Blank lines part the entries; values can stand above or below the compound they belong to.

Columns and labels:
LXR [1] = tested on: T1, LXR; assay: Activity on LXR, assay not specified; settings: confirmed by applicant
T1 construct: rows headed: activity on LXR; other: confirmed by applicant; LXRα (amino acids 1-447); NP005684; NP009052
From the text: The following compounds from this application, in particular, are further described in some publications, mainly from the same group of inventors/authors: SR9238 is described as a liver-selective LXR inverse agonist that suppresses hepatic steatosis upon parenteral administration (Griffett et al., ACS Chem. Biol. 2013; 8:559). […] This compound then has systemic exposure. In addition, it was described, that SR9238 suppresses fibrosis in a model of NASH again after parenteral administration (Griffett et al., Mol. Metab. 2015; 4:35). With a related SR9243 the effects on aerobic glycolysis (Warburg effect) and lipogenesis were described (Flaveny et al., Cancer Cell 2015; 28:42) and the NASH-supressing data obtained with SR9238 was confirmed by Huang et al. (BioMed Res. Int. 2018; 8071093) using SR9243.

LXR [2] = settings: literature; cited from earlier work
[3] = target: T2, GST-LXRβ ligand-binding domain (Homo sapiens, UniProt P55055, INS174Q); assay: TR-FRETβ activity assay (NCoA3 coactivator peptide recruitment); assay type: biochemical; settings: 1 μM 24(S)-25-epoxycholesterol as prestimulating agonist; inverse agonist unless *
T2 construct: amino acids 156-461; NP009052; made in house; host or cells: E. coli
T2 sequence (P55055 with tags, fused parts or gaps INS174Q limits assumed): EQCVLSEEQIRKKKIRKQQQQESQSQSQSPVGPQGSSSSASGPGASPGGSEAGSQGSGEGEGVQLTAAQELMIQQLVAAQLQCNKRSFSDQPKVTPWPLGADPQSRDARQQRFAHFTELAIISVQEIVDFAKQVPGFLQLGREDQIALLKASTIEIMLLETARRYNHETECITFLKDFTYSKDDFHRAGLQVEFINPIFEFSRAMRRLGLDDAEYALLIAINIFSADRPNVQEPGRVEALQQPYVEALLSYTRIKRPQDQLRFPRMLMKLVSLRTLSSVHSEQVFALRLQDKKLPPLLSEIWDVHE
Procedure, shortened: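 Coactivator recruitment read as TR-FRET (ex 340, em 615 and 665 nm) after 1 h equilibration at 4° C, in triplicate. Mix held 76 nM GST-tagged LXRβ LBD (aa 156-461, E. coli), 400 nM biotin-NCoA3 peptide, Tb-cryptate anti-GST, streptavidin-XL665, 240 mM KCl buffer.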

[4] = target: T3, LXRα ligand-binding domain (LBD) (Homo sapiens, UniProt Q13133); assay: LXR Gal4 reporter transient transfection assay, mammalian two-hybrid, LBD-M2H Gal4α; assay type: cell-based; settings: HEK293 cells; inverse agonist unless *
T3 construct: expressed in transfected cells; host or cells: HEK293
T3 sequence (Q13133 155-447): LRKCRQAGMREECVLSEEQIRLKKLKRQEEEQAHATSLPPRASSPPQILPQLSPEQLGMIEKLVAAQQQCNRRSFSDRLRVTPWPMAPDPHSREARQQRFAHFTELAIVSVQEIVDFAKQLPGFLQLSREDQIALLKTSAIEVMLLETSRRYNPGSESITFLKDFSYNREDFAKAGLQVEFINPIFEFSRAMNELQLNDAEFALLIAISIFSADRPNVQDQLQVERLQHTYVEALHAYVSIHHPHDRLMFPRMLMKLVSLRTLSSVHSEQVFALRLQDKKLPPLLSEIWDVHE
Description: (§1) The tested compounds were usually dissolved, tested and stored as 20 mM stock solutions in DMSO. Since sulfonyl acetic acid derivatives tend to decarboxylate under these conditions, these stock solutions were prepared, tested and stored as 20 mM DMSO stock solutions containing 100 mM trifluoroacetic acid (5 equivalents). Sulfonyl acetic acid derivatives are shelf stable as solid at rt for long time as reported by Griesbrecht et al. (Synlett 2010:374) or Faucher et al. (J. Med. Chem. 2004; 47:18).
(§2) LXR Gal4 Reporter Transient Transfection Assays
(§3) LXRα and LXRβ activity status was determined via detection of interaction with coactivator and corepressor proteins in mammalian two-hybrid experiments (M2H). For this, via transient transfection the full length (FL) proteins of LXRα (amino acids 1-447; NP005684; SEQ ID NO:1) or LXRβ-(amino acids 1-461; NP009052; SEQ ID NO:2) or the ligand-binding domains (LBD) of LXRα (amino acids 155-447 SEQ ID NO:3) or LXR (amino acids 156-461; SEQ ID NO:4) were expressed from pCMV-AD (Stratagene) as fusions to the transcriptional activation domain of NFkB. As cofactors, domains of either the steroid receptor coactivator 1 (SRC1; amino acids 552-887; SEQ ID NO:5) or of the corepressor NCoR (amino acids 1906-2312; NP006302; SEQ ID NO:6) were expressed as fusions to the DNA binding domain of the yeast transcription factor GAL4 (from pCMV-BD; Stratagene). Interaction was monitored via activation of a coexpressed Firefly Luciferase Reporter gene under control of a promoter containing repetitive GAL4 response elements (vector pFRLuc; Stratagene). Transfection efficiency was controlled via cotransfection of constitutively active pRL-CMV Renilla reniformis luciferase reporter (Promega). HEK293 cells were grown in minimum essential medium (MEM) with 2 mM L-glutamine and Earle's balanced salt solution supplemented with 8.3% fetal bovine serum, 0.1 mM non-essential amino acids, 1 mM sodium pyruvate, at 37° C. in 5% CO2. 3.5×10^4 cells/well were plated in 96-well cell culture plates in growth medium supplemented with 8.3% fetal bovine serum for 16-20 h to—90% confluency. For transfection, medium was taken off and LXR and cofactor expressing plasmids as well as the reporter plasmids are added in 30 μL OPTIMEM/well including polyethylene-imine (PEI) as vehicle. Typical amounts of plasmids transfected/well: pCMV-AD-LXR (5 ng), pCMV-BD-cofactor (5 ng), pFR-Luc (100 ng), pRL-CMV (0.5 ng). Compound stocks were prepared in DMSO, prediluted in MEM to a total volume of 120 μL, and added 4 h after addition of the transfection mixture (final vehicle concentration not exceeding 0.2%). Cells were incubated for additional 16 h, lysed for 10 min in 1×Passive Lysis Buffer (Promega) and Firefly and Renilla luciferase activities were measured sequentially in the same cell extract using buffers containing D-luciferine and coelenterazine, respectively. Measurements of luminescence were done in a BMG-luminometer.

[5] = target: T4, LXRβ ligand-binding domain (LBD) (Homo sapiens, UniProt P55055, INS174Q); assay: LXR Gal4 reporter transient transfection assay, mammalian two-hybrid, LBD-M2H Gal4β; assay type: cell-based; settings: HEK293 cells; inverse agonist unless *
T4 construct: or LXR (amino acids 156-461); expressed in transfected cells; host or cells: HEK293
T4 sequence (P55055 with tags, fused parts or gaps INS174Q limits assumed): T2 sequence (P55055 with tags, fused parts or gaps INS174Q limits assumed)
Description: as §1, §2, §3

[6] = Pharmacokinetics in mice after single oral dosing, blood and liver exposure by LC-MS; assay type: in vivo, mice (C57/bl6/J)
Procedure, shortened: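 Male C57BL/6J mice fasted ≥12 h, given a single oral dose of 20 mg/kg (n=3 per group). Sacrifice at 4, 12 or 24 h post-dose; liver and blood levels quantified by LC-MS.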

[7] = rat liver microsome; cited from earlier work
[8] = human liver microsome; cited from earlier work
[9] = Chemical stability of stock solutions and solids; assay type: physicochemical; settings: sodium salt
Description: To a solution of compound 7/9 (150 mg, 0.24 mmol) in MeOH (10 mL) and water (10 mL) was added NaOH ([…], 0.48 mmol) at rt. The mixture was stirred at rt overnight and concentrated. The residue was washed with H2O to give compound 14 as a white solid.
as §1

[10] = single oral dose 20 mg/kg, time point 4 h
[11] = single oral dose 20 mg/kg, time point 4 h, below LLOQ

SMILES: Cc1cc(C)c(S(=O)(=O)N(Cc2ccc(-c3cccc(S(C)(=O)=O)c3)cc2)Cc2ccc(C(=O)O)o2)c(C)c1 [SR10389]
activity on LXR (LXR [1]): inactive on LXR
LXR activity (LXR [2]): LXR inactive

EC50 [3]: < 0.1 µM
EC50 [4]: < 0.1 µM
EC50 [5]: < 0.1 µM
Kp at 4 h ([6]; male, C57/bl6/J, mouse, liver/blood, single oral dose 20 mg/kg, time point 4 h, read-out: liver/blood ratio): 2.7
blood/plasma exposure [6, 10]: 4.46 µM
liver exposure [6, 10]: 12.1 µM
SMILES: CC(C)(C(=O)O)c1cccc(-c2ccc(CN(Cc3ccc(C(F)(F)F)o3)Cc3c(C#N)ccc4ccccc34)cc2)c1 [27/67]

blood/plasma exposure [6, 11]: (14.4 ng/mL)
liver exposure [6, 11]: (9.6 ng/mL)
SMILES: Cc1cc(C)c(S(=O)(=O)N(Cc2ccc(-c3cccc(S(C)(=O)=O)c3)cc2)Cc2ccc(C(F)(F)F)o2)c(C)c1 [GSK2033, reference compound]
oral bioavailability ([6]; single dose oral administration, 20 mg/kg): not orally bioavailable and hepatoselective
clearance ClInt [7]: > 1.0 mL/min/mg prot
clearance ClInt [8]: > 1.0 mL/min/mg prot

EC50 [3]: 1 to 10 µM
EC50 [4]: 1 to 10 µM
EC50 [5]: < 0.1 µM
SMILES: COc1cc(-c2ccc(CO)c(C(C)(C)C(=O)[O-])c2)ccc1CN(Cc1ccc(C(F)(F)F)o1)Cc1c(C)ccc2ccccc12.[Na+] [Example 14]
stability upon standing [9]: tends to cyclisize back to lacton 7/9 upon standing
